The values that follow come from US9260439B2, “Dihydropyrrolopyrimidine derivatives” (PFIZER INC., priority 2014, dated 2016).

Test [1] addresses truncated PI3Kα (p110α/iSH2 p85α) (Homo sapiens (Human), UniProt P42336). Put plainly: PI3KA_Act fluorescence polarization kinase assay (Ki). The format is biochemical. The settings on record: 1 mM ATP. The procedure, abridged: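 Ki values result from fitting fluorescence polarization signals to the Morrison equation for tight-binding competitive inhibitors. The detector was GST-Grp1 PH domain with TAMRA-PIP3, read after a 30 min room-temperature reaction of 0.5 nM truncated PI3Kα and 30 μM PIP2 at pH 7.4 in HEPES/NaCl/MgCl2/DTT/CHAPS buffer. Compounds were tested as 12-point 3-fold dilutions from 3 μM.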

Test [2] has as its target full-length PI3Kα (full-length p110α/p85α) (Homo sapiens (Human), UniProt P42336). Nature of the test: PI3KA_FL fluorescence polarization kinase assay (Ki). The settings on record: 41 μM ATP. The format is biochemical. A general note: Polarisation of emitted light reports the rotation of a fluorescent probe.

SMILES strings stand for the structures.

full-length PI3Kα (full-length p110α/p85α), sequence (P42336 whole entry): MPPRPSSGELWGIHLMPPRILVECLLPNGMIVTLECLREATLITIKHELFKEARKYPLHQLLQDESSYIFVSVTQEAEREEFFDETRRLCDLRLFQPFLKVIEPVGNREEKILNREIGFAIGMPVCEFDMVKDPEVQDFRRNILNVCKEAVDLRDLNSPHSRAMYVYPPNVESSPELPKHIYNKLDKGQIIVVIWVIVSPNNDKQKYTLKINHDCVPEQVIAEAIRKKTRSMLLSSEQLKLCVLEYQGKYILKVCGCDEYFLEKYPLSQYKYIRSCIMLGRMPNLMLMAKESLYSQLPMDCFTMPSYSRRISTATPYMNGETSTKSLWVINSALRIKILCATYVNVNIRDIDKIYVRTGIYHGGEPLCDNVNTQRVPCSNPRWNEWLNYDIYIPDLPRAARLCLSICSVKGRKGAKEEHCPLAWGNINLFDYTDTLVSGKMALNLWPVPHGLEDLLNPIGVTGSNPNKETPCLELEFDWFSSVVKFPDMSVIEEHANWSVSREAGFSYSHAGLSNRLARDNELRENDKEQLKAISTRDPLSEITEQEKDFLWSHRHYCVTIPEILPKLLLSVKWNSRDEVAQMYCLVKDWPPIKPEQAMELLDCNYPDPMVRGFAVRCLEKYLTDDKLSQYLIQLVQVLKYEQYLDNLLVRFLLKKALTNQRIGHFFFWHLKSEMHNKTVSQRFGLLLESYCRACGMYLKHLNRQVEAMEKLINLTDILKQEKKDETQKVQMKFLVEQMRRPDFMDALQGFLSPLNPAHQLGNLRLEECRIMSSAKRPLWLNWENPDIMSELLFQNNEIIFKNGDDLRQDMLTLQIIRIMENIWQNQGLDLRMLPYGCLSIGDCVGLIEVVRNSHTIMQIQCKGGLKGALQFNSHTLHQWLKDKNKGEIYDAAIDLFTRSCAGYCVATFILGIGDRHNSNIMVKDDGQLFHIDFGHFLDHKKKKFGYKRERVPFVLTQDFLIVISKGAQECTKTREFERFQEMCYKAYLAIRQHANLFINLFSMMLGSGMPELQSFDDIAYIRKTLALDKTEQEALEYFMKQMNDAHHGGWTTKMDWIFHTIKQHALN
full-length PI3Kα (full-length p110α/p85α), sequence (P27986 whole entry partner): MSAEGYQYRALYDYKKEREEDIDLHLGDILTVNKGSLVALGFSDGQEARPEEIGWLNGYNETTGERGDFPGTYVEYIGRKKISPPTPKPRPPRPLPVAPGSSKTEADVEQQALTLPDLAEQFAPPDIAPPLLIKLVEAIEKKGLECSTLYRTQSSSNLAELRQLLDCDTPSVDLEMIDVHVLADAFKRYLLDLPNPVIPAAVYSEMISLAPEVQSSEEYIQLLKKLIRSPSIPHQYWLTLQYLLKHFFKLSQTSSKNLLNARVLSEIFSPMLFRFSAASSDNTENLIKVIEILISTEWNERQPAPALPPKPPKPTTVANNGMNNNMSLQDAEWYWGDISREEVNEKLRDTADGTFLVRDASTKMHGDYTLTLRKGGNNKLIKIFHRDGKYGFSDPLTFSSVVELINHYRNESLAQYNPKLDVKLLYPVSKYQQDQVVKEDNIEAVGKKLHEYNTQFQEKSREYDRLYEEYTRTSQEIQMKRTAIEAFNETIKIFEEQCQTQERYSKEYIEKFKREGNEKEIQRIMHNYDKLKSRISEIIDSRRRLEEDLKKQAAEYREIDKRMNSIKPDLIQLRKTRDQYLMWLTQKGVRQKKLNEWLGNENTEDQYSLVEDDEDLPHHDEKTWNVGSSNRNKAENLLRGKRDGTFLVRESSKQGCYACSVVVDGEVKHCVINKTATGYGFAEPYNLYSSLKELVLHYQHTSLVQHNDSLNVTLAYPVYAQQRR
truncated PI3Kα (p110α/iSH2 p85α), sequence (P42336 whole entry, the tested form may be a part): as the sequence (P42336 whole entry) above

As for `Nc1ncc(-c2nc(N3CCOCC3)nc3c2CCN3[C@H]2CCC(F)(F)C2)cn1` (single isomer, unassigned) [Example 34], in test [1], the “PI3KA_Act Ki” value is listed as 0.730 nM. In test [2], the “PI3KA_FL Ki” value came to 0.469 nM.
Consider `Nc1ncc(-c2nc(N3CCOCC3)nc3c2CCN3C2CN(S(N)(=O)=O)C2)cn1` [Example 72], for which the “PI3KA_Act Ki” value in test [1] is 0.129 nM. Further, the “PI3KA_FL Ki (nM)” value in test [2] is given as “≦0.229 nM”.
`CC(C)S(=O)(=O)N1CC[C@H](N2CCc3c(-c4cnc(N)nc4)nc(N4CCOC[C@@H]4C)nc32)C1` [Example 131]: the “PI3KA_Act Ki” value in test [1] is recorded as 0.044 nM. Further, in test [2], the “PI3KA_FL Ki (nM)” value is reported as “≦0.229 nM”.
As to `CC(C)(C)N1CCc2c(-c3cnc(N)nc3)nc(N3CCOCC3)nc21` [Example 132], the “PI3KA_Act Ki” value in test [1] turned out to be 0.150 nM. In addition, in test [2], the “PI3KA_FL Ki (nM)” value is recorded as “≦0.229 nM”.
With `CCS(=O)(=O)N1CC[C@H](N2CCc3c(-c4cnc(N)nc4)nc(N4CCOCC4)nc32)C1` [Example 101], the “PI3KA_Act Ki” value in test [1] came to 0.093 nM. Besides, in test [2], the “PI3KA_FL Ki (nM)” value is given as “≦0.229 nM”.
Consider `N#C[C@H]1C[C@H](N2CCc3c(-c4cnc(N)nc4)nc(N4CCOCC4)nc32)C1` [Example 59], for which, in test [1], the “PI3KA_Act Ki” value stood at 0.122 nM. In addition, the “PI3KA_FL Ki (nM)” value in test [2] is reported as “≦0.229 nM”.
With `CS(=O)(=O)N[C@H]1C[C@H](N2CCc3c(-c4cnc(N)nc4)nc(N4CCOCC4)nc32)C1` [Example 105], the “PI3KA_Act Ki” value in test [1] came out at 0.157 nM. The “PI3KA_FL Ki” value in test [2] is given as 0.285 nM.
Regarding `CS(=O)(=O)N1CC[C@H](N2CCc3c(-c4cnc(N)nc4)nc(N4CCOCC4)nc32)C1` [Example 20], the “PI3KA_Act Ki” value in test [1] is 0.153 nM. Besides, the “PI3KA_FL Ki (nM)” value in test [2] is given as “≦0.229 nM”.
As to `C[C@H]1COCCN1c1nc(-c2cnc(N)nc2)c2c(n1)N([C@H]1CCN(S(N)(=O)=O)C1)CC2` [Example 100], the “PI3KA_Act Ki” value in test [1] is recorded as 0.132 nM. In addition, the “PI3KA_FL Ki (nM)” value in test [2] is “≦0.229 nM”.
In the case of `COC(=O)N1CC(N2CCc3c(-c4cnc(N)nc4)nc(N4CCOCC4)nc32)C1` [Example 61], the “PI3KA_Act Ki” value in test [1] was found to be 0.235 nM. Further, the “PI3KA_FL Ki” value in test [2] amounted to 0.234 nM.
For the molecule `CC1(N2CCc3c(-c4cnc(N)nc4)nc(N4CCOCC4)nc32)CCN(S(C)(=O)=O)C1` (racemic) [Example 146], the “PI3KA_Act Ki” value in test [1] turned out to be 0.015 nM. Further, the “PI3KA_FL Ki (nM)” value in test [2] is on record as “≦0.229 nM”.
In the case of `CNS(=O)(=O)N(C)[C@H]1C[C@@H](N2CCc3c(-c4cnc(N)nc4)nc(N4CCOCC4)nc32)C1` [Example 57], in test [1], the “PI3KA_Act Ki” value was 0.465 nM. The “PI3KA_FL Ki” value in test [2] is given as 0.318 nM.
For the molecule `COC(=O)N1CC[C@H](N2CCc3c(-c4cnc(N)nc4)nc(N4CCOC[C@@H]4C)nc32)C1` [Example 123], the “PI3KA_Act Ki” value in test [1] was determined as 0.069 nM. In addition, the “PI3KA_FL Ki (nM)” value in test [2] is recorded as “≦0.229 nM”.
For the molecule `CNS(=O)(=O)N1CC[C@@H](N2CCc3c(-c4cnc(N)nc4)nc(N4CCOC[C@@H]4C)nc32)C1` [Example 85], the “PI3KA_Act Ki” value in test [1] stood at 0.239 nM. The “PI3KA_FL Ki” value in test [2] came out at 0.283 nM.
As to `CCS(=O)(=O)N1CC[C@H](N2CCc3c(-c4cnc(N)nc4)nc(N4CCOC[C@@H]4C)nc32)C1` [Example 119], the “PI3KA_Act Ki” value in test [1] was determined as 0.059 nM. For the same molecule, in test [2], the “PI3KA_FL Ki (nM)” value is given as “≦0.229 nM”.
For `CC(C)S(=O)(=O)N1CC[C@H](N2CCc3c(-c4cnc(N)nc4)nc(N4CCOCC4)nc32)C1` [Example 106], in test [1], the “PI3KA_Act Ki” value is given as 0.064 nM. Further, the “PI3KA_FL Ki (nM)” value in test [2] is listed as “≦0.229 nM”.
On to `CNS(=O)(=O)N1C[C@@H](O)[C@H](N2CCc3c(-c4cnc(N)nc4)nc(N4CCOC[C@@H]4C)nc32)C1` [Example 128], for which, in test [1], the “PI3KA_Act Ki” value is given as 0.126 nM. Also, the “PI3KA_FL Ki (nM)” value in test [2] was “≦0.229 nM”.
As for `CS(=O)(=O)N1CCC[C@@H](N2CCc3c(-c4cnc(N)nc4)nc(N4CCOCC4)nc32)C1` [Example 93], the “PI3KA_Act Ki” value in test [1] is 0.603 nM. The “PI3KA_FL Ki” value in test [2] turned out to be 0.506 nM.
For the molecule `C[C@H]1COCCN1c1nc(-c2cnc(N)nc2)c2c(n1)N([C@H]1CCN(S(C)(=O)=O)C1)CC2` [Example 79], the “PI3KA_Act Ki” value in test [1] is 0.257 nM. Further, the “PI3KA_FL Ki (nM)” value in test [2] is “≦0.229 nM”.
Take `CC(C)S(=O)(=O)N1CC(N2CCc3c(-c4cnc(N)nc4)nc(N4CCOC[C@@H]4C)nc32)C1` [Example 1, 5-{2-[(3S)-3-methylmorpholin-4-yl]-7-[1-(propan-2-ylsulfonyl)azetidin-3-yl]-6,7-dihydro-5H-pyrrolo[2,3-d]pyrimidin-4-yl}pyrimidin-2-amine]: the “PI3KA_Act Ki” value in test [1] turned out to be 0.102 nM. The “PI3KA_FL Ki (nM)” value in test [2] is given as “≦0.229 nM”.
On to `CCS(=O)(=O)N1CC(N2CCc3c(-c4cnc(N)nc4)nc(N4CCOCC4)nc32)C1` [Example 108], for which the “PI3KA_Act Ki” value in test [1] is 0.122 nM. In addition, the “PI3KA_FL Ki (nM)” value in test [2] is on record as “≦0.229 nM”.
In the case of `C[C@H]1COCCN1c1nc(-c2cnc(N)nc2)c2c(n1)N(C1CN(S(=O)(=O)N(C)C)C1)CC2` [Example 120], the “PI3KA_Act Ki” value in test [1] is on record as 0.030 nM. In addition, the “PI3KA_FL Ki (nM)” value in test [2] is listed as “≦0.229 nM”.
Regarding `Nc1ncc(-c2nc(N3CCOCC3)nc3c2CCN3C2CC(F)(F)C2)cn1` [Example 13], the “PI3KA_Act Ki” value in test [1] amounted to 0.211 nM. Moreover, in test [2], the “PI3KA_FL Ki” value is recorded as 0.307 nM.
In the case of `C[C@H]1COCCN1c1nc(-c2cnc(N)nc2)c2c(n1)N(C1CN(S(=O)(=O)C3CC3)C1)CC2` [Example 118], the “PI3KA_Act Ki” value in test [1] amounted to 0.030 nM. In test [2], the “PI3KA_FL Ki (nM)” value was “≦0.229 nM”.
The corresponding values for `C[C@H]1COCCN1c1nc(-c2cnc(N)nc2)c2c(n1)N(C1CN(S(C)(=O)=O)C1)CC2` [Example 113] are 0.289 nM and “≦0.229 nM”.
Take `C[C@H]1COCCN1c1nc(-c2cnc(N)nc2)c2c(n1)N(C1CN(S(N)(=O)=O)C1)CC2` [Example 126]: the “PI3KA_Act Ki” value in test [1] came out at 0.219 nM. The “PI3KA_FL Ki (nM)” value in test [2] was “≦0.229 nM”.
Taken in the same sequence, the figures for `Nc1ncc(-c2nc(N3CCOCC3)nc3c2CCN3[C@H]2CCN(S(=O)(=O)C3CC3)C2)cn1` [Example 102] were 0.067 nM and “≦0.229 nM”.
